EP4635958A1, “PYRIMIDINE-CONTAINING POLYCYCLIC DERIVATIVE INHIBITOR, AND PREPARATION METHOD THEREFOR AND USE THEREOF” (Shanghai Hansoh Biomedical Co., Ltd., priority 2022, dated 2024)
Structures can show the parent of a compound that is named as a salt. Where two headings read alike, the source gives them in different places.

Tests used:
[1] = Pharmacokinetic determination in rats (IV and PO, plasma, LCMS/MS); format: in vivo, SD rats; conditions: male SD rats; for F: PO 30 mg/kg vs IV 1 mg/kg; for AUC(0-inf) / C0 / clearance / half-life / Cmax / Tmax: rat, in vivo, overnight fasting, plasma; for AUC(0-inf): read-out: AUCo-∞; for C0: read-out: C0; for clearance: read-out: CL; for half-life: read-out: T1/2 (converted); for Cmax: read-out: Cmax; for Tmax: read-out: Tmax
In short: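 Male SD rats (3/group), fasted overnight, dosed PO at 30 mg/kg in 10% Captisol/50 mM citrate pH 5.0 or IV at 1 mg/kg in 5% DMSO/10% Solutol HS15/85% PBS. Jugular plasma (EDTA-2K) sampled predose to 24 h; analysed by LCMS/MS.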

[2] = Plasma stability test, mouse plasma; format: in vitro ADME; conditions: Mouse plasma, 37°C; for half-life: read-out: t1/2 (converted);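 as to all read-outs here: test compound quantified by LC-MS using positive-mode electrospray ionization and MRM scanning, with an internal standard added in acetonitrile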
Experimental: (§1) Liquid chromatography-mass spectrometer, centrifuge, vortexer, pipette, continuous dispenser, 96-well plate, 50% methanol aqueous solution, acetonitrile solution containing internal standard, blank matrix (plasma of rat, dog, or human), Propantheline (propantheline bromide), Mevinolin (lovastatin), and test compound.
(§2) After whole blood was collected from animals or humans, it was placed in a test tube containing an anticoagulant and centrifuged at 3500 rpm for 10 min to collect the upper pale yellow plasma.
(§3) The compound was weighed and the stock solution was formulated with DMSO and the working solution was formulated with 100 mM phosphate buffer.
(§4) • Instrument: API4000 liquid chromatography-mass spectrometer, AB Company, USA; • the ion source was electrospray ionization source (ESI); • drying gas (N2) temperature was 500°C; • electrospray voltage was 5500V; • the detection method was positive ion detection; • the scanning method was selected reaction monitoring (MRM); • the scanning time was 0.1s.

[3] = Plasma stability test, rat plasma; conditions: for Remaining rate (%) 0 min / Remaining rate (%) 15 min / Remaining rate (%) 30 min / Remaining rate (%) 60 min / Remaining rate (%) 120 min: Rat plasma, 37°C; for half-life: rat, plasma
[4] = Plasma stability test, dog plasma; format: in vitro ADME; conditions: Dog plasma, 37°C; for half-life: read-out: t1/2 (converted);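 as to all read-outs here: parent compound left in dog plasma quantified by LC-MS with positive electrospray ionization, selected reaction monitoring and an internal standard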
Experimental: as §1, §2, §3, §4

Structure (SMILES) | F [1] [%] | AUC(0-inf) ([1]; IV, 1 mg/kg) [µg·h/mL] | C0 ([1]; IV, 1 mg/kg) [µg/mL] | clearance ([1]; IV, 1 mg/kg) [L/h/kg] | half-life ([1]; IV, 1 mg/kg) [h] | AUC(0-inf) ([1]; PO, 30 mg/kg) [µg·h/mL] | Cmax ([1]; PO, 30 mg/kg) [µg/mL] | half-life ([1]; PO, 30 mg/kg) [h] | Tmax ([1]; PO, 30 mg/kg) [h] | Remaining rate (%) 0 min [2] [%] | Remaining rate (%) 15 min [2] [%] | Remaining rate (%) 30 min [2] [%] | Remaining rate (%) 60 min [2] [%] | Remaining rate (%) 120 min [2] [%] | half-life [2] [h] | Remaining rate (%) 0 min [3] [%] | Remaining rate (%) 15 min [3] [%] | Remaining rate (%) 30 min [3] [%] | Remaining rate (%) 60 min [3] [%] | Remaining rate (%) 120 min [3] [%] | further results
C#Cc1c(F)ccc2cc(O)cc(-c3nc4c5c(nc(OCC6(CN7CCC(=NOC)CC7)CC6)nc5c3F)N3C[C@H]5CC[C@H](N5)[C@H]3[C@H](C)O4)c12 [Example 35-1, 1-((1-((((5S,5aS,6S,9R)-2-(8-ethynyl-7-fluoro-3-hydroxynaphthalen-1-yl)-1-fluoro-5-methyl-5a,6,7,8,9,10-hexahydro-5H-4-oxa-3,10a,11,13,14-pentaaza-6,9-methylenenaphtho[1,8-ab]heptalen-12-yl)oxo)methyl)cyclopropyl)methyl)piperidin-4-one O-methyloxime formate] | 3.5 | 0.571 | 2.81 | 1.75 | 5.7 | 0.601 | 0.108 | 3.4 | 2 |  |  |  |  |  |  |  |  |  |  |  | 
[2H]C([2H])(Oc1nc2c3c(nc(-c4cc(O)cc5ccc(F)c(C#C)c45)c(F)c3n1)O[C@@H](C)[C@@H]1[C@@H]3CC[C@H](CN21)N3)C1(C([2H])([2H])N2CCC(=CF)CC2)CC1 [Example 291, 5-ethynyl-6-fluoro-4-((5S,5aS,6S,9R)-1-fluoro-12-((1-((4-(fluoromethylene)piperidin-1-yl)methyl-d2)cyclopropyl)methoxy-d2)-5-methyl-5a,6,7,8,9,10-hexahydro-5H-4-oxa-3,10a,11,13,14-pentaaza-6,9-methylnaphtho[1,8-ab]hept-2-yl)naphthalen-2-ol] |  |  |  |  |  |  |  |  |  | 100.00 | 97.50 | 82.58 | 81.82 | 63.23 | 3.08 | 100.00 | 99.67 | 102.83 | 103.48 | 98.20 | half-life [3]: 38.3 h; Remaining rate (%) 0 min [4]: 100.00%; Remaining rate (%) 15 min [4]: 104.39%; Remaining rate (%) 30 min [4]: 94.89%; Remaining rate (%) 60 min [4]: 103.00%; Remaining rate (%) 120 min [4]: 99.65%; half-life [4]: 94.6 h
[2H]C([2H])([2H])[C@@H]1Oc2nc(-c3cc(O)cc4ccc(F)c(C#C)c34)c(F)c3nc(OCC4(CN5CCC(=CF)CC5)CC4)nc(c23)N2C[C@H]3CC[C@H](N3)[C@@H]12 [Example 164] |  | 0.774 | 0.838 | 1.29 | 17.6 | 1.58 | 0.135 | 14 | 2 | 100.00 | 99.34 | 95.56 | 101.65 | 100.99 | 149 | 100.00 | 97.07 | 93.36 | 97.21 | 95.03 | half-life [3]: 91.6 h; Remaining rate (%) 0 min [4]: 100.00%; Remaining rate (%) 15 min [4]: 92.40%; Remaining rate (%) 30 min [4]: 94.94%; Remaining rate (%) 60 min [4]: 96.81%; Remaining rate (%) 120 min [4]: 91.42%; half-life [4]: 51.9 h
CON=C1CCN(CC2(COc3nc4c5c(nc(-c6cc(N)cc(Cl)c6C(F)(F)F)c(F)c5n3)O[C@@H](C)[C@@H]3[C@@H]5CC[C@H](CN43)N5)CC2)CC1 [Example 337, 1-((1-((((5S,5aS,6S,9R)-2-(5-amino-3-chloro-2-(trifluoromethyl)phenyl)-1-fluoro-5-methyl-5a,6,7,8,9,10-hexahydro-5H-4-oxa-3,10a,11,13,14-pentaaza-6,9-methylnaphtho[1,8-ab]heptene-12-yl)oxy)methyl)cyclopropyl)methyl)piperidin-4-one O-methyloxime] |  |  |  |  |  | 0.374 | 0.041 | 4.2 | 4 |  |  |  |  |  |  |  |  |  |  |  | 
[2H]C([2H])([2H])[C@@H]1Oc2nc(-c3cc(N)cc(Cl)c3C(F)(F)F)c(F)c3nc(OCC4(CN5CCC(=NOC)CC5)CC4)nc(c23)N2C[C@H]3CC[C@H](N3)[C@@H]12 [Example 339] | 6.6 | 0.098 | 0.174 | 10.2 | 2.6 | 0.22 | 0.043 | 3 | 2 |  |  |  |  |  |  |  |  |  |  |  | 
C#Cc1c(F)ccc2cc(O)cc(-c3nc4c5c(nc(OCC6(CN7CCC(=C(F)F)CC7)CC6)nc5c3F)N3C[C@H]5CC[C@H](N5)[C@H]3CO4)c12 [Example 1-1, 4-((5aS,6S,9R)-12-((1-((4-(difluoromethylene)piperidin-1-yl)methyl)cyclopropyl)methoxy)-1-fluoro-5a,6,7,8,9,10-hexahydro-5H-4-oxa-3,10a,11,13,14-pentaaza-6,9-methylenenaphtho[1,8-ab]heptalene-2-yl)-5-ethynyl-6-fluoronaphthalen-2-ol] | 2.1 | 2.96 | 1.77 | 0.336 | 16.3 | 1.89 | 0.254 | 5.1 | 6 | 100.00 | 94.74 | 96.27 | 96.21 | 98.50 | 146 | 100.00 | 95.76 | 92.93 | 88.38 | 80.60 | half-life [3]: 13.5 h; Remaining rate (%) 0 min [4]: 100.00%; Remaining rate (%) 15 min [4]: 100.25%; Remaining rate (%) 30 min [4]: 105.57%; Remaining rate (%) 60 min [4]: 104.40%; Remaining rate (%) 120 min [4]: 93.99%; half-life [4]: 48.9 h
C#Cc1c(F)ccc2cc(O)cc(-c3nc4c5c(nc(OCC6(CN7CCC(=C(F)F)CC7)CC6)nc5c3F)N3C[C@H]5CC[C@H](N5)[C@H]3[C@H](C)O4)c12 [Example 19-1, 4-((5S,5aS,6S,9R)-12-((1-((4-(difluoromethylene)piperidin-1-yl)methyl)cyclopropyl)methoxy)-1-fluoro-5-methyl-5a,6,7,8,9,10-hexahydro-5H-4-oxa-3,10a,11,13,14-pentaaza-6,9-methylnaphtho[1,8-ab]hept-2-yl)-5-ethynyl-6-fluoronaphthalene-2-ol] | 5.4 | 1.9 | 1.72 | 0.528 | 10.1 | 3.08 | 0.329 | 8.2 | 2 | 100.00 | 101.30 | 98.20 | 91.51 | 92.09 | 27.4 | 100.00 | 96.27 | 91.39 | 95.69 | 94.09 | half-life [3]: 86.3 h; Remaining rate (%) 0 min [4]: 100.00%; Remaining rate (%) 15 min [4]: 95.89%; Remaining rate (%) 30 min [4]: 101.96%; Remaining rate (%) 60 min [4]: 101.84%; Remaining rate (%) 120 min [4]: 94.59%; half-life [4]: 75.5 h
